The source of these data is patent publication US11717508B2, “Compounds, compositions, and methods for inhibiting bacterial growth” (priority 2016, dated 2023).

SMILES strings stand for the structures.

The subject of this experiment is DosRST regulon. The format is cell-based. The conditions noted are these: 40 μM, 6 days, >2-fold, p<0.05.

With `C[C@@H]1CC(C)(C)C[C@]2(C1)NC(=O)NC2=O` (racemic) [HC102A, 7,7,9-trimethyl-1,3-diazaspiro[4.5]decane-2,4-dione], the “genes downregulated by compound that are also downregulated in the CDC1551(ΔdosR) mutant” value came to 48 genes.
